Values joined by “and” are separate entries in the source; they are usually repeats but may differ in a detail not shown here. Identical values can stand only once.
How the values were obtained:
BRD4 = target: T1, BRD4 (Homo sapiens, UniProt O60885); assay: Liability panel screening by DSF: BRD4; type: binding; settings: DSF, 20 µM, n=2; read-out: Mean ΔTM BRD4
T1 construct: This panel comprised ten highly ligandable kinases and bromodomains; made in house
How it was run: (§1)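 ∆Tm in K was taken from Boltzmann-fitted unfolding inflection points, run in duplicate with a temperature ramp of 3 °C per minute up to 85 °C. Each recombinant protein (2 µM) was in HEPES 10 mM pH 7.5 and NaCl 500 mM, with SYPRO Orange dye at 1:1000.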

AURKA = target: T2, AURKA (Homo sapiens, UniProt O14965); assay: Liability panel screening by DSF: AURKA; type: binding; settings: DSF, 20 µM, n=2; read-out: Mean ΔTM AURKA
T2 construct: made in house
T2 sequence (O14965 1-403): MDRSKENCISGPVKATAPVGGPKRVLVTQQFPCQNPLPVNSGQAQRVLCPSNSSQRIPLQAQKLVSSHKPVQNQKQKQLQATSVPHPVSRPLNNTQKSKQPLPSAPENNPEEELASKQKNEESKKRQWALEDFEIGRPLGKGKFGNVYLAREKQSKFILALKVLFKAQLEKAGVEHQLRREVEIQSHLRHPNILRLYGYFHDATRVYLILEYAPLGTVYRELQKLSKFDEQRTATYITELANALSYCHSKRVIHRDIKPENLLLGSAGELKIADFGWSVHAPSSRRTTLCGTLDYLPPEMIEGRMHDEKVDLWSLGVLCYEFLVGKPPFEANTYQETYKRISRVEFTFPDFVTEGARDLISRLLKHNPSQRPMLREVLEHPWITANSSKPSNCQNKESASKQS
How it was run: as §1

[1] = system: NF-κB activity in HEK293 NF-κB reporter cells; assay: NF-kB activity assay (GFP reporter, ionomycin/PMA); type: cell-based; settings: for Mean NFκB response: n=3
How it was run: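 Reporter readout: GFP-expressing cells normalized to confluence, imaged every 90 min across 24 h after ionomycin (100 ng/mL)/PMA (10 ng/mL) stimulation of HEK293 cells pre-treated 4 h with compound (0.1% DMSO); triplicate independent experiments.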

TRIM24 = target: T3, TRIM24 (Homo sapiens, UniProt O15164); assay: Liability panel screening by DSF: TRIM24; type: binding; settings: DSF, 20 µM, n=2; read-out: Mean ΔTM TRIM24
T3 construct: This panel comprised ten highly ligandable kinases and bromodomains; made in house
T3 sequence (O15164 899-1004 limits assumed): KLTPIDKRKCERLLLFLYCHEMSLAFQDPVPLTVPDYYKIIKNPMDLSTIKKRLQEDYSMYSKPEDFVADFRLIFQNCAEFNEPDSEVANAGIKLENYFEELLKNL
How it was run: as §1

HEK293T cells [2] = assay: Cytotoxicity: growth-rate (change in confluence over 24 h); settings: 1 µM, normalized to 0.1% DMSO control, single replicates (n=1...)
HEK293T cells [3] = assay: Cytotoxicity: apoptosis induction (caspase-3/7 DEVD fluorogenic DNA dye); settings: 1 µM; HEK293T, 24 h; apoptotic cell count normalized to 0.1% DMSO; single replicates
CDK2 = target: T4, CDK2 (Homo sapiens, UniProt P24941); assay: Liability panel screening by DSF: CDK2; type: binding; settings: DSF, 20 µM, n=2; read-out: Mean ΔTM CDK2
T4 construct: made in house
How it was run: as §1

GSK3B = target: T5, GSK3B (Homo sapiens, UniProt P49841); assay: Liability panel screening by DSF: GSK3B; type: binding; settings: DSF, 20 µM, n=2; read-out: Mean ΔTM GSK3B
T5 construct: made in house

CSNK1D = target: T6, CSNK1D (Homo sapiens, UniProt P48730); assay: Liability panel screening by DSF: CSNK1D; type: binding; settings: DSF, 20 µM, n=2; read-out: Mean ΔTM CSNK1D
T6 construct: made in house
How it was run: as §1

[4] = system: ATF6 activity in Hela ATF6 reporter cells; assay: Endoplasmic reticulum stress assay (ATF6 Renilla luciferase reporter, tunicamycin); type: cell-based; settings: for ATF6 activity (tunicamycin-induced endoplasmic reticulum stress): Hela ATF6 reporter cells, tunicamycin 100 ng/mL, 18 h, compounds at recommended concentrations, n = 5; for activity at 1 µM: Homo sapiens, HeLa, single replicates n=1 to n=5, read-out: ER stress [rel. ATF6 activity]
How it was run: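 ER stress was induced by 100 ng/mL tunicamycin added 4 h after compound (0.1% DMSO) to HeLa ATF6 reporter cells. After 18 h more, Renilla luciferase signal was read and expressed relative to DMSO control, n=5 biological replicates.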

Gal4-VP16 = type: cell-based; settings: 1 µM; vs. DMSO ctrl; single replicates n=1-3
ABL1 = target: T7, ABL1 (Homo sapiens, UniProt P00519); assay: Liability panel screening by DSF: ABL1; type: binding; settings: DSF, 20 µM, n=2; read-out: Mean ΔTM ABL1
T7 construct: made in house
How it was run: as §1

HEK293T cells [5] = assay: Cytotoxicity: metabolic activity (WST-8 / CCK-8 assay); settings: 1 µM; HEK293T, 24 h; WST-8; normalized to 0.1% DMSO; single replicates
HEK293T cells [6] = assay: Cytotoxicity: necrosis induction (red fluorescent dye for permeable plasma membranes); type: cell-based; settings: 1 µM, 24 h, necrotic cell count normalized to 0.1% DMSO, single replicates;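 also: compounds applied in DMEM high glucose with 0.1% FCS and 0.1% DMSO, necrotic HEK293T cells counted by red staining of cells whose plasma membranes had become permeable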

T7 sequence (P00519 whole entry, species assumed): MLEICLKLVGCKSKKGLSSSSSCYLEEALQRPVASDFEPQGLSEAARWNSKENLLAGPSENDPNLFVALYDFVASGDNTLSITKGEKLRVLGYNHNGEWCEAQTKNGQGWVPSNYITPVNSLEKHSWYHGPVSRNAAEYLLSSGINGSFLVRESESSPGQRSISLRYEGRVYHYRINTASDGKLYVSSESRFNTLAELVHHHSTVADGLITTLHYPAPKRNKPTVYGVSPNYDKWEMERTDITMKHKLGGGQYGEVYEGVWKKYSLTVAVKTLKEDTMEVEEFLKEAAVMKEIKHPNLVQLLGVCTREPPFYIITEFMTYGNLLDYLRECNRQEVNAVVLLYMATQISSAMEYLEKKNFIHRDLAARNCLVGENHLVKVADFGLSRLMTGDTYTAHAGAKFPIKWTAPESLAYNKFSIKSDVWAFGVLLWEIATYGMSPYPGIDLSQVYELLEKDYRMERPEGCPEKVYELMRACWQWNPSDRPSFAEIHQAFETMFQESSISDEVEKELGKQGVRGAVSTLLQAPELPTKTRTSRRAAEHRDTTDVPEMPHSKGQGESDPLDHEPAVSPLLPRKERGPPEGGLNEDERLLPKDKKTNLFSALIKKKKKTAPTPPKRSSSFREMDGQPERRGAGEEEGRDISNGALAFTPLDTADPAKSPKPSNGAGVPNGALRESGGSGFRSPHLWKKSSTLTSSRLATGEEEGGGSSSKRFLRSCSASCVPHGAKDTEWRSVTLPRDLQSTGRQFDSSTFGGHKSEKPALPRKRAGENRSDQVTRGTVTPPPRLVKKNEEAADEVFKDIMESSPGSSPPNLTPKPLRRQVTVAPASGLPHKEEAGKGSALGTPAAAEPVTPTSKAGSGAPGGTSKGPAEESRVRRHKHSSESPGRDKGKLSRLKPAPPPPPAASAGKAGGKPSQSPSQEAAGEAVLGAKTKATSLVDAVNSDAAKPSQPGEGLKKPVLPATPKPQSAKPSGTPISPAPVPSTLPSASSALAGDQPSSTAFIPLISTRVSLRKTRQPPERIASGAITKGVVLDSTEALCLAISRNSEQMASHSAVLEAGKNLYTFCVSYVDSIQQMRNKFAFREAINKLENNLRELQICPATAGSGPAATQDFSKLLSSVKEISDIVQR
T5 sequence (P49841 whole entry, species assumed): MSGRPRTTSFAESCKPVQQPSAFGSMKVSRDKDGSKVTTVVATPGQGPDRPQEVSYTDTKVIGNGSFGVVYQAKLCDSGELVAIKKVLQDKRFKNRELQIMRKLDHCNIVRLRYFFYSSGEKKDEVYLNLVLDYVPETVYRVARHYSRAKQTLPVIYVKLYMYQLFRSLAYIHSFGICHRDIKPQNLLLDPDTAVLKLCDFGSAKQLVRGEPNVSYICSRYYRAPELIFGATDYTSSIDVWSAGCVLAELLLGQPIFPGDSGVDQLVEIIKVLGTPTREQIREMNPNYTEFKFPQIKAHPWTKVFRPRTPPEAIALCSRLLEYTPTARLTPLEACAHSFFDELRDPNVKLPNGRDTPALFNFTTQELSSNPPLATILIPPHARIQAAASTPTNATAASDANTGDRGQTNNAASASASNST
T6 sequence (P48730 whole entry, species assumed): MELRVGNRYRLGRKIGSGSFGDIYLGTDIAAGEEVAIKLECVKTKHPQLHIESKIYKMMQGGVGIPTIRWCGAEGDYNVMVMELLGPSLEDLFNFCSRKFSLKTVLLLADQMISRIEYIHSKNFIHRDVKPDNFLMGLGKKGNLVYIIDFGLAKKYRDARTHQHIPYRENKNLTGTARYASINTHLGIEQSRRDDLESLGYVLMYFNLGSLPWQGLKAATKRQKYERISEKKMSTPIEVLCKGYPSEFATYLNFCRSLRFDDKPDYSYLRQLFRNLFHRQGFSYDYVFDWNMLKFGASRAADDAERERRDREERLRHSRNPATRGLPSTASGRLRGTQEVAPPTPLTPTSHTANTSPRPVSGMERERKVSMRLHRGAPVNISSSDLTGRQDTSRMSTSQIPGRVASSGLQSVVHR

| SMILES | ΔTm at 20 µM (BRD4) | ΔTm at 20 µM (AURKA) | Mean NFκB response ([1]; 1 µM, 1,5 h) | Mean NFκB response ([1]; 1 µM, 4,5 h) | Mean NFκB response ([1]; 1 µM, 7,5 h) | Mean NFκB response ([1]; 1 µM, 10,5 h) | Mean NFκB response ([1]; 1 µM, 13,5 h) | Mean NFκB response ([1]; 1 µM, 16,6 h) | Mean NFκB response ([1]; 1 µM, 19,5 h) | Mean NFκB response ([1]; 1 µM, 22,5 h) | Mean NFκB response ([1]; 1 µM, 3 h) | Mean NFκB response ([1]; 1 µM, 6 h) | Mean NFκB response ([1]; 1 µM, 9 h) | Mean NFκB response ([1]; 1 µM, 12 h) | Mean NFκB response ([1]; 1 µM, 15 h) | Mean NFκB response ([1]; 1 µM, 18 h) | Mean NFκB response ([1]; 1 µM, 21 h) | Mean NFκB response ([1]; 1 µM, 24 h) | ΔTm at 20 µM (TRIM24) | Growth rate [GR] (HEK293T cells [2]) | other results |
| --- | --- | --- | --- | --- | --- | --- | --- | --- | --- | --- | --- | --- | --- | --- | --- | --- | --- | --- | --- | --- | --- |
| Cc1ccc2c(NC[C@](O)(CC(C)(C)c3cc(F)cc4c3OCC4)C(F)(F)F)cccc2n1 [Mapracorat] | -0.11 °C | -0.69 °C | 2171.23 GFP+-cells/confluence ∙ 1000 | 3001.35 GFP+-cells/confluence ∙ 1000 | 6252.60 GFP+-cells/confluence ∙ 1000 | 12057.95 GFP+-cells/confluence ∙ 1000 | 15815.67 GFP+-cells/confluence ∙ 1000 | 19330.00 GFP+-cells/confluence ∙ 1000 | 21866.67 GFP+-cells/confluence ∙ 1000 | 23846.67 GFP+-cells/confluence ∙ 1000 | 2434.19 GFP+-cells/confluence ∙ 1000 | 4081.73 GFP+-cells/confluence ∙ 1000 | 9170.03 GFP+-cells/confluence ∙ 1000 | 13883.00 GFP+-cells/confluence ∙ 1000 | 17560.00 GFP+-cells/confluence ∙ 1000 | 20616.67 GFP+-cells/confluence ∙ 1000 | 23216.67 GFP+-cells/confluence ∙ 1000 | 25073.33 GFP+-cells/confluence ∙ 1000 | -0.84 °C | 0.90 and 6.11 and 0.92 and 1.17 and 0.84 and 0.73 and 1.07 and 1.61 and 3.67 and 14.17 | NF-κB activity (inflammatory response to ionomycin/PMA) ([1]; HEK293 NF-κB reporter cells, compounds at recommended concentrations, imaged over 24 h, n = 3): consistently delayed and strongly diminished NF-κB activity; Apoptosis induction [AI] (HEK293T cells [3]): -0.37 and -0.27 and 0.87 and 1.32 and 1.12 and 1.57; ΔTm at 20 µM (CDK2): -0.17 °C; ΔTm at 20 µM (GSK3B): -0.25 °C; ΔTm at 20 µM (CSNK1D): -0.78 °C; ATF6 activity (tunicamycin-induced endoplasmic reticulum stress) [4]: Consistently weaker ATF6 activity; activity at 1 µM [4]: 83%; VP16 control [fold reporter gene activity] (Gal4-VP16): 0.84 fold reporter gene activity and 0.88 fold reporter gene activity and 1.01 fold reporter gene activity; ΔTm at 20 µM (ABL1): 0.24 °C; Metabolic activity [MA] (HEK293T cells [5]): 1.04 and 1.02 (2×) and 0.95 and 0.98 (2×) and 0.94 and 1.03; Necrosis induction [NI] (HEK293T cells [6]): 1.18 and 1.03 and 0.88 and 0.99 |
| COc1cc(/C=C(\C#N)C(=O)Nc2nnc(C(F)(F)F)s2)ccc1OCc1ccc(C(F)(F)F)cc1C(F)(F)F [XCT790] | -2.31 °C | -0.27 °C | 3626.75 GFP+-cells/confluence ∙ 1000 | 4074.08 GFP+-cells/confluence ∙ 1000 | 7428.22 GFP+-cells/confluence ∙ 1000 | 16505.45 GFP+-cells/confluence ∙ 1000 | 23920.00 GFP+-cells/confluence ∙ 1000 | 29753.33 GFP+-cells/confluence ∙ 1000 | 33970.00 GFP+-cells/confluence ∙ 1000 | 37876.67 GFP+-cells/confluence ∙ 1000 | 3669.25 GFP+-cells/confluence ∙ 1000 | 4944.18 GFP+-cells/confluence ∙ 1000 | 11887.81 GFP+-cells/confluence ∙ 1000 | 20416.67 GFP+-cells/confluence ∙ 1000 | 27150.00 GFP+-cells/confluence ∙ 1000 | 32423.33 GFP+-cells/confluence ∙ 1000 | 35883.33 GFP+-cells/confluence ∙ 1000 | 39596.67 GFP+-cells/confluence ∙ 1000 | 0.29 °C | 0.75 and 0.63 and 1.18 and 1.17 and 1.04 (2×) and 0.70 and 0.89 and 0.87 and 0.19 | Apoptosis induction [AI] (HEK293T cells [3]): 0.85 (2×) and 0.75 and 0.81 and 1.26 and 1.13; ΔTm at 20 µM (CDK2): 0.38 °C; ΔTm at 20 µM (GSK3B): -0.62 °C; ΔTm at 20 µM (CSNK1D): 0.0531 °C; ATF6 activity (tunicamycin-induced endoplasmic reticulum stress) [4]: lacked this effect; activity at 1 µM [4]: 100%; VP16 control [fold reporter gene activity] (Gal4-VP16): 1.11 fold reporter gene activity and 0.95 fold reporter gene activity and 0.91 fold reporter gene activity; ΔTm at 20 µM (ABL1): 0.47 °C; Metabolic activity [MA] (HEK293T cells [5]): 1.06 and 0.99 and 0.98 and 1.09 and 1.00 and 1.02 and 1.05 and 1.01; Necrosis induction [NI] (HEK293T cells [6]): 0.92 and 0.82 and 0.84 and 0.79 |

From PMC11790914, “Chemogenomics for steroid hormone receptors (NR3)” (Communications Chemistry, 2025)
